From ChEMBL document CHEMBL4622850, “Discovery and optimization of new oxadiazole substituted thiazole RORγt inverse agonists through a bioisosteric amide replacement approach” (Bioorg Med Chem Lett, 2020)
Converted amounts (≈) assume the structure as drawn.

How the values were obtained:
[1] = molecular target: T1, Nuclear receptor ROR-beta (Homo sapiens, UniProt Q92753); assay: Binding affinity to RORbeta (unknown origin) assessed as dissociation constant by thermal shift binding assay
T1 sequence (Q92753 whole entry): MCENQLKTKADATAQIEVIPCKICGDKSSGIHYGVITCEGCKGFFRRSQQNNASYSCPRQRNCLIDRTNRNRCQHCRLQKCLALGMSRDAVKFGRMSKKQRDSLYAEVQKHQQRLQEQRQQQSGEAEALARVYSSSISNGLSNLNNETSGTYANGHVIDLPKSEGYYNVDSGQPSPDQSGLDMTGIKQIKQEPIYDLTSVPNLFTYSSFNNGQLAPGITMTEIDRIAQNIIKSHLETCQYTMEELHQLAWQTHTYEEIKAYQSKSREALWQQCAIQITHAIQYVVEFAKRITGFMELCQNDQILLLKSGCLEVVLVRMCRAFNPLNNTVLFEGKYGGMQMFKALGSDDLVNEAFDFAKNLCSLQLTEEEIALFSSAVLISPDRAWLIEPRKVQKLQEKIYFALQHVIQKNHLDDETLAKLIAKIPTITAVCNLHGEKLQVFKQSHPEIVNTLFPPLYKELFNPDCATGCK

[2] = Solubility of compound by pH 7; assay type: physicochemical; settings: buffer
[3] = Oral bioavailability in rat at 1 mg/kg; assay type: ADME, organism-based; settings: in vivo
[4] = Solubility of compound by pH 2; assay type: physicochemical; settings: buffer
[5] = Volume of distribution in rat at 1 mg/kg, iv; assay type: ADME, organism-based; settings: in vivo
[6] = Half life in rat at 1 mg/kg, iv; assay type: ADME, organism-based; settings: in vivo
[7] = Metabolic stability in rat liver microsomes assessed as half life; assay type: ADME, Microsome
[8] = Clearance in rat at 1 mg/kg, iv; assay type: ADME, organism-based; settings: in vivo
[9] = Cmax in rat at 5 mg/kg, po; assay type: ADME, organism-based; set-up: dose 5 mg/kg, route oral; settings: in vivo
[10] = AUC in rat at 5 mg/kg, po; assay type: ADME, organism-based; settings: in vivo
[11] = molecular target: T2, Nuclear receptor ROR-gamma (Mus musculus, UniProt P51450); assay: Inverse agonist activity at RORgammat in mouse whole blood assessed as reduction in IL-17a production; assay type: tissue-based
T2 sequence (P51450 whole entry): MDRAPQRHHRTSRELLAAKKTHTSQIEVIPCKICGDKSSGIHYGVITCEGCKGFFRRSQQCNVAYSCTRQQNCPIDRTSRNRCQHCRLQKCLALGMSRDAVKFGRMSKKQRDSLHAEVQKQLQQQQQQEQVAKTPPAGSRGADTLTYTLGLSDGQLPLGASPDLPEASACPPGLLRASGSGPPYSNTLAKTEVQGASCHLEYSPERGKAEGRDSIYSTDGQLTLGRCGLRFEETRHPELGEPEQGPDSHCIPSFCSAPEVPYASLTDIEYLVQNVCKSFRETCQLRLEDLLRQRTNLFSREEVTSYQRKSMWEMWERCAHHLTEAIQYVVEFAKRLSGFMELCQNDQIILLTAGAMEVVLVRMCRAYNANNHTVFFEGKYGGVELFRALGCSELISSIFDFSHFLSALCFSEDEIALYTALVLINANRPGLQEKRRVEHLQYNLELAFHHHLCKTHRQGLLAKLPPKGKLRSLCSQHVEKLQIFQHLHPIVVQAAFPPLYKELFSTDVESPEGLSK

[12] = molecular target: T3, Nuclear receptor subfamily 1 group I member 2 (Homo sapiens, UniProt O75469); assay: Activation of PXR (unknown origin) at 5 uM; assay type: ADME
T3 sequence (O75469 whole entry): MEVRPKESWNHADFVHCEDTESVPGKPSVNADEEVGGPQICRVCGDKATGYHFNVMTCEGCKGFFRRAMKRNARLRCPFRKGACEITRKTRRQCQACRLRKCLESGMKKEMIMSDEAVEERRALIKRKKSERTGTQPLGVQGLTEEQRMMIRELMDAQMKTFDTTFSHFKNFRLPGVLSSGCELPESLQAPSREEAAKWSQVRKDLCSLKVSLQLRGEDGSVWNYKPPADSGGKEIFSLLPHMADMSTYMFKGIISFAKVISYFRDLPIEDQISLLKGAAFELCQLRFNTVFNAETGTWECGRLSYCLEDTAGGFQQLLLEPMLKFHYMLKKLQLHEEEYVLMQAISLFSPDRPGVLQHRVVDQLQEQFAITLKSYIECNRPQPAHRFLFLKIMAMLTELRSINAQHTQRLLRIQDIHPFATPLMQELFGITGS

Cytochrome P450 2C9 = Cytochrome P450 2C9 (Homo sapiens, UniProt P11712); assay: Inhibition of CYP2C9 (unknown origin); assay type: ADME
Chain of Cytochrome P450 2C9 (P11712 whole entry): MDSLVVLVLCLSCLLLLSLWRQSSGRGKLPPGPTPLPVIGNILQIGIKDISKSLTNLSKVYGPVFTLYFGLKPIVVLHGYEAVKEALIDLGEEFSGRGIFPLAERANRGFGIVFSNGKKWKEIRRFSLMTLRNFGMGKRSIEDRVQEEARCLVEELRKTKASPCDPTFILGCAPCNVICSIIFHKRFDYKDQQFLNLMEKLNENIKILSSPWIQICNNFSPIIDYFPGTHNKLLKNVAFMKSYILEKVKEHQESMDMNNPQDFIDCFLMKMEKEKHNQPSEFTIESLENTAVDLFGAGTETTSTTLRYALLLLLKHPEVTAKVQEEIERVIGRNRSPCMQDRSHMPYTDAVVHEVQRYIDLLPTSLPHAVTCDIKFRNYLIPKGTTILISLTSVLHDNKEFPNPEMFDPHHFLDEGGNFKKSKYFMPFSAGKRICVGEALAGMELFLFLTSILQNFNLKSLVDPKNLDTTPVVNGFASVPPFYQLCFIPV

Cytochrome P450 2C19 = Cytochrome P450 2C19 (Homo sapiens, UniProt P33261); assay: Inhibition of CYP2C19 (unknown origin); assay type: ADME
Chain of Cytochrome P450 2C19 (P33261 whole entry): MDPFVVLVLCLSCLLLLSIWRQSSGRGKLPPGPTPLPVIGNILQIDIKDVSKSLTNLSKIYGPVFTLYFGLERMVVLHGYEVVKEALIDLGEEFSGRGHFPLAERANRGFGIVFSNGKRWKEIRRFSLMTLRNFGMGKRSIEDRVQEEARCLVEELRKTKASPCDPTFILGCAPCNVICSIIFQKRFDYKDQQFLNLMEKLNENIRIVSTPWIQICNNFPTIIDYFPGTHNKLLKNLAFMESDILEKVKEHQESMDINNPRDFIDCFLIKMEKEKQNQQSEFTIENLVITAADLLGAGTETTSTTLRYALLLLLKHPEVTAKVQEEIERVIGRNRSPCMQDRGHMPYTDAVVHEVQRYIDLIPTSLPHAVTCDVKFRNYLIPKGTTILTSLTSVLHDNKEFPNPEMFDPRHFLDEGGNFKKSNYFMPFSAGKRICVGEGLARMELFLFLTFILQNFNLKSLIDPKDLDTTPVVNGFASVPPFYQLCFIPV

| SMILES | solubility [2] | solubility [4] | IC50 [11] | other results |
| --- | --- | --- | --- | --- |
| C[C@H](NS(=O)(=O)c1ccc(-c2sc(-c3nnc(C(C)(C)O)o3)nc2C(=O)N2CCC(F)CC2)c(Cl)c1Cl)C(F)(F)F | 165 µM (≈ 109 µg/mL) | – | – | Kd [1]: > 50000 nM |
| C[C@H](NS(=O)(=O)c1ccc(-c2sc(-c3nnc(CC(C)(C)C(=O)O)o3)nc2CC2CCC2)c2ccccc12)C(F)(F)F | 24 µM (≈ 14.9 µg/mL) | < 4 µM | – | bioavailability [3]: 96%; Vd [5]: 1.1 L/kg; half-life [6]: 3.1 h; half-life [7]: > 3 h; clearance [8]: 6 mL/min/kg; Cmax [9]: 2300 nM; AUC [10]: 13100 ng·h/mL |
| C[C@H](NS(=O)(=O)c1ccc(-c2sc(-c3nnc(CC(C)(C)C(=O)O)o3)nc2Cc2ccc(F)cc2)c(C(F)F)c1F)C(F)(F)F | 57 µM (≈ 38.8 µg/mL) | < 4 µM | – | – |
| C[C@H](NS(=O)(=O)c1ccc(-c2sc(-c3nnc(CC(C)(C)C(=O)O)o3)nc2CN2CCCC(F)(F)C2)c(C(F)F)c1F)C(F)(F)F | 182 µM (≈ 128 µg/mL) | 54 µM (≈ 38.1 µg/mL) | 448 nM | – |
| CC[C@H](NS(=O)(=O)c1ccc(-c2sc(-c3nnc(CC(C)(C)O)o3)nc2C(=O)N2CCC(F)CC2)c(Cl)c1Cl)C(F)(F)F | 99 µM (≈ 68.2 µg/mL) | 41 µM (≈ 28.2 µg/mL) | 120 nM | – |
| CC(C)(O)CNC(=O)c1nc(CC2CCCCC2)c(-c2ccc(S(=O)(=O)NC(C)(C)C)c3ccccc23)s1 | < 4 µM | < 4 µM | – | – |
| CC(C)(C)NS(=O)(=O)c1ccc(-c2sc(C(=O)N[C@H]3C[C@H](C(=O)O)C3)nc2CC2CCCCC2)c2ccccc12 | < 1 µM | < 1 µM | – | bioavailability [3]: 20%; Cmax [9]: 220 nM; AUC [10]: 302 ng·h/mL |
| CC[C@H](NS(=O)(=O)c1ccc(-c2sc(CC(C)(C)C(=O)O)nc2CC2CCC2)c(Cl)c1)C(F)(F)F | – | – | – | Activity [12]: 2% |
| C[C@H](NS(=O)(=O)c1ccc(-c2sc(-c3cnc(CC(C)(C)C(=O)O)s3)nc2CC2CCC2)c(Cl)c1Cl)C(F)(F)F | < 4 µM | < 4 µM | – | – |
| C[C@H](NS(=O)(=O)c1ccc(-c2sc(C(=O)NCC(C)(C)O)nc2CC2CCC2)c(Cl)c1Cl)C(F)(F)F | – | – | – | half-life [7]: 0.617 h |
| CC(C)(C)NS(=O)(=O)c1ccc(-c2sc(-c3nnc(C(C)(C)O)o3)nc2CC2CCCCC2)c2ccccc12 | < 1 µM | < 1 µM | – | – |
| C[C@H](NS(=O)(=O)c1ccc(-c2sc(CC(C)(C)C(=O)O)nc2CC2CCC2)c(C(F)(F)F)c1)C(F)(F)F | – | – | – | Activity [12]: 43% |
| CC[C@H](NS(=O)(=O)c1ccc(-c2sc(CC(C)(C)C(=O)O)nc2CC2CCC2)c(Cl)c1Cl)C(F)(F)F | 178 µM (≈ 105 µg/mL) | < 4 µM | – | Activity [12]: 40% |
| C[C@H](NS(=O)(=O)c1ccc(-c2sc(-c3nnc(CC(C)(C)C(=O)O)o3)nc2C(=O)N2CCCC[C@@H]2C)c(C(F)F)c1F)C(F)(F)F | 398 µM (≈ 278 µg/mL) | < 4 µM | – | – |
| COC(C)(C)Cc1nc(-c2nnc(CC(C)(C)C(=O)O)o2)sc1-c1ccc(S(=O)(=O)N[C@@H](C)C(F)(F)F)c(F)c1C(F)F | 363 µM (≈ 239 µg/mL) | < 4 µM | 9000 nM | – |
| CCN(CC)C(=O)c1nc(-c2nnc(C(C)(C)O)o2)sc1-c1ccc(S(=O)(=O)N[C@@H](C)C(F)(F)F)c(Cl)c1Cl | 55 µM (≈ 34.7 µg/mL) | – | 100 nM | Kd [1]: > 60000 nM; half-life [7]: 1.58 h |
| C[C@H](NS(=O)(=O)c1ccc(-c2sc(CC(C)(C)C(=O)O)nc2CC2CCC2)c(Cl)c1Cl)C(F)(F)F | 268 µM (≈ 154 µg/mL) | < 4 µM | 1870 nM | Activity [12]: 33% |
| C[C@H](NS(=O)(=O)c1ccc(-c2sc(-c3noc(CC(C)(C)C(=O)O)n3)nc2CC2CCC2)c(Cl)c1Cl)C(F)(F)F | 38 µM (≈ 24.4 µg/mL) | < 4 µM | 790 nM | – |
| CC[C@H](NS(=O)(=O)c1ccc(-c2sc(-c3nnc(CC(C)(C)C(=O)O)o3)nc2CC2CCCCC2)c(C(F)F)c1F)C(F)(F)F | < 4 µM | < 4 µM | 1540 nM | – |
| CC[C@H](NS(=O)(=O)c1ccc(-c2sc(-c3nnc(CC(C)(C)C(=O)O)o3)nc2CC2CCCC2)c(C(F)F)c1F)C(F)(F)F | 69 µM (≈ 46.1 µg/mL) | < 4 µM | 230 nM | – |
| C[C@H](NS(=O)(=O)c1ccc(-c2sc(-c3noc(C(C)(C)O)n3)nc2C(=O)N2CCC(F)CC2)c(Cl)c1Cl)C(F)(F)F | 6.4 µM (≈ 4.23 µg/mL) | 9.7 µM (≈ 6.41 µg/mL) | – | Kd [1]: > 91000 nM |
| C[C@H](NS(=O)(=O)c1ccc(-c2sc(-c3nnc([C@H]4C[C@H](C(=O)O)C4)o3)nc2CC2CCC2)c(Cl)c1Cl)C(F)(F)F | 118 µM (≈ 75.5 µg/mL) | < 4 µM | – | – |
| C[C@H](NS(=O)(=O)c1ccc(-c2sc(-c3cc(CC(C)(C)C(=O)O)on3)nc2CC2CCC2)c(Cl)c1Cl)C(F)(F)F | < 4 µM | < 4 µM | – | – |
| C[C@H](NS(=O)(=O)c1ccc(-c2sc(-c3nnc(CC(C)(C)C(=O)O)s3)nc2CC2CCC2)c(Cl)c1Cl)C(F)(F)F | – | – | – | IC50 (Cytochrome P450 2C9): 900 nM |
| C[C@H](NS(=O)(=O)c1ccc(-c2sc(-c3cc(CC(C)(C)C(=O)O)ncn3)nc2CC2CCC2)c(Cl)c1Cl)C(F)(F)F | – | – | – | IC50 (Cytochrome P450 2C19): 790 nM |
